Measured values as given in ChEMBL document CHEMBL1201862, “PubChem BioAssay data set” (2004).
The source made the active and inactive calls. Rule as the data show it, for most assays here: actives have a measured EC50 and inactives only a lower limit.

How the values were obtained:
Streptokinase A = target: T1, Streptokinase A (Streptococcus pyogenes serotype M1, UniProt P10520); test: viability-normalized secreted streptokinase activity reduction – plasminogen activation absorbance, OD405, dose response (AID 1914); type: functional, Streptococcus pyogenes M1 GAS;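 also: secreted streptokinase activity via plasminogen activation per viability signal from cell pellet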
T1 sequence (P10520 whole entry): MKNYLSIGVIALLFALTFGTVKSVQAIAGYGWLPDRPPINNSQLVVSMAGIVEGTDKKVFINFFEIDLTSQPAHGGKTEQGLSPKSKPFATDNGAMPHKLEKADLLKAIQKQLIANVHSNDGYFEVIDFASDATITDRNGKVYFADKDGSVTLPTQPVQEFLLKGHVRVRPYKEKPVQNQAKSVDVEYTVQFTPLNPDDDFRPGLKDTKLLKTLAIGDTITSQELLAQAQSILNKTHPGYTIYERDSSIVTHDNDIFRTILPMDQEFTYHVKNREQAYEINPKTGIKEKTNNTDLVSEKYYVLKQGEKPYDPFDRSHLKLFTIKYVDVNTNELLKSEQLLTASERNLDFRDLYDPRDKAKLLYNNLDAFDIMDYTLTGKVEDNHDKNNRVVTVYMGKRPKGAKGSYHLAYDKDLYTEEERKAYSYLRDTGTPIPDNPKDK

Protein RecA = target: T2, Protein RecA (Mycobacterium tuberculosis, UniProt P9WHJ3); test: Fluorescence Cell-Free Homogeneous Dose Retest to Identify Inhibitors of RecA-Intein Splicing Activity. [Related pubchem assays (depositor defined):AID2097, AID2223, AID489010, AID492950]; type: functional
T2 sequence (P9WHJ3 whole entry): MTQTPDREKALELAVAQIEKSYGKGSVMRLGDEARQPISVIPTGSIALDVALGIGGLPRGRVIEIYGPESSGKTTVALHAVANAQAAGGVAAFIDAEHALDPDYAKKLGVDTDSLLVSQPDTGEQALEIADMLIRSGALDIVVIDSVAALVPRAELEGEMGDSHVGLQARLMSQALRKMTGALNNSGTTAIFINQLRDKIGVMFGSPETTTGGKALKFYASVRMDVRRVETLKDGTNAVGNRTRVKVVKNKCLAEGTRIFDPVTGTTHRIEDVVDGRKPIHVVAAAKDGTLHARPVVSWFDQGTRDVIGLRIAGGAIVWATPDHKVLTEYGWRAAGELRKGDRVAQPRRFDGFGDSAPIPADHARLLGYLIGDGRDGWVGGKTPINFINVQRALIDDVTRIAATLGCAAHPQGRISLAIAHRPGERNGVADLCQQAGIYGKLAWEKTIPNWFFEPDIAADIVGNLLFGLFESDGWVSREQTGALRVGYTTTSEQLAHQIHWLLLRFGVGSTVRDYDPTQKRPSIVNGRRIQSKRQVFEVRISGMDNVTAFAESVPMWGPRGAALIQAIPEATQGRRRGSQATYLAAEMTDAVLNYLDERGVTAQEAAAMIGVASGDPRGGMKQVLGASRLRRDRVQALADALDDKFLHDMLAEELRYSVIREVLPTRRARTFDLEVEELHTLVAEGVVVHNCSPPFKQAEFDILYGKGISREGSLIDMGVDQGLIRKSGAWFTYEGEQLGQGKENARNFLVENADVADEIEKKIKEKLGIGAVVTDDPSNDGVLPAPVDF

Streptococcus = test: GAS UMAA2166 growth inhibition – luminescence, BacTiterGlo, counter-screen for streptokinase expression inhibitor project, dose response (AID 1915); type: functional, organism-based;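 also: potency for reduction of bacterial viability or growth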
[1] = target: T3, Replicative DNA helicase DnaB (Mycobacterium tuberculosis, UniProt P9WMR3); test: DnaB intein splicing inhibitors, dose response, biochemical, cell-free fluorescence (AID 449749); type: functional
T3 sequence (P9WMR3 whole entry): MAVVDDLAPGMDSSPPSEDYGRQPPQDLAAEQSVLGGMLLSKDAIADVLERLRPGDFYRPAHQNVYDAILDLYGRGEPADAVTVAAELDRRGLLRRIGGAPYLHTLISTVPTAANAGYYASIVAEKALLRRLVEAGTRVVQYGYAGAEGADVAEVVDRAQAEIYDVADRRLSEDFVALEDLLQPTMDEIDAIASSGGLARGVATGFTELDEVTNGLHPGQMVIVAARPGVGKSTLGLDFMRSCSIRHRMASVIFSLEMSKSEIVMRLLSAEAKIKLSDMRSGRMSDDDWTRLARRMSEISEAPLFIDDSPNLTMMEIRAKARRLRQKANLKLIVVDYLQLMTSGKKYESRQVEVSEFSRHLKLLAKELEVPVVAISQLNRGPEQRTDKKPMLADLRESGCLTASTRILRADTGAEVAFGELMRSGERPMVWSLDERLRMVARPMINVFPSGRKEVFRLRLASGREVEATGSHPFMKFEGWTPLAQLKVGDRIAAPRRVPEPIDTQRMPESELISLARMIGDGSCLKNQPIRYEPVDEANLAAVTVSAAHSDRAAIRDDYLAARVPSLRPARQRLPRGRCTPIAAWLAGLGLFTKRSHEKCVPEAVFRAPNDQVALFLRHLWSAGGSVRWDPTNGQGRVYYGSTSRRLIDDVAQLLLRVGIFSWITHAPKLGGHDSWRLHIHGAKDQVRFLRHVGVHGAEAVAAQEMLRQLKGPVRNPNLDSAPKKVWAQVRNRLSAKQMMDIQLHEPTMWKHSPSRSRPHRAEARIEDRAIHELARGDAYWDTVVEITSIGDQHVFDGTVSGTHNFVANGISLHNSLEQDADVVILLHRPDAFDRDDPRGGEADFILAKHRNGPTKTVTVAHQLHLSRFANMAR

[2] = tested on: Streptococcus sp. 'group A'; test: Streptococcus pyogenes SK(-)GAS viability under kanamycin – luminescence, BacTiterGlo, confirmation, counter-screen for streptokinase expression inhibitor project, dose response (AID 1900); type: functional, organism-based
[3] = target: T4, Tyrosyl-DNA phosphodiesterase 2 (Homo sapiens, UniProt O95551); test: potency against TDP2 phosphodiesterase activity – biochemical, epi absorbance, IC50, dose response (AID 743297)
T4 sequence (O95551 whole entry): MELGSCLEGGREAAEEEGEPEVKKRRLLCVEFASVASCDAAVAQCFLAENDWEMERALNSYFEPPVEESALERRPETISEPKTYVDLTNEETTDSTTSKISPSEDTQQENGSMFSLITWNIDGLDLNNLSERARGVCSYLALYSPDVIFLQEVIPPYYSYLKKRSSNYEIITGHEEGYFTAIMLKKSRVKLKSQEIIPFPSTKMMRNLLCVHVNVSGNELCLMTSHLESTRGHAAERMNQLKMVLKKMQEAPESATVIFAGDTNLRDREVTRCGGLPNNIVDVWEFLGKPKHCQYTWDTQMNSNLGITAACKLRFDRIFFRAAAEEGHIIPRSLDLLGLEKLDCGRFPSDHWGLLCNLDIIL

Row | Compound | EC50 (Streptokinase A) | EC50 (Protein RecA) | EC50 (Streptococcus) | AC50 [1] | EC50 [2] | IC50 [3]
1 | CCc1nnc(NS(=O)(=O)c2ccc(NC(=S)NC(=O)/C=C/c3ccc(C(C)C)cc3)cc2)s1 | 4.44 µM (active) | 33.4 µM (active) | 7.83 µM (active) | 3.15 µM (active) | 2.39 µM (active) | 
2 | COc1ccc(S(=O)(=O)Nc2cc(SCC(=O)O)c(O)c3ccccc23)cc1 |  | 0.234 µM (active) |  | 0.885 µM (active) |  | 75.9 µM (inactive)
3 | O=C1C(Nc2ccc(O)cc2)=C/C(=N/S(=O)(=O)c2cccs2)c2ccccc21 | > 150 µM (not active) | 0.123 µM (active) | 7.1 µM (active) | 0.128 µM (active) | 1.68 µM (active) | 0.698 µM (active)
4 | COC(=O)C(O)(c1c(C)[nH]n(-c2ccccc2)c1=O)C(F)(F)F (configuration not stated) |  | 3.74 µM (active) |  | < 0.018 µM (active) |  | 12.7 µM (inactive)
5 | CC1CC(=O)c2c(cc3c(-c4c(O)cc(O)c5c(O)c6c(cc45)OC(C)CC6=O)c(O)cc(O)c3c2O)O1 (configuration not stated) [CEPHALOCHROMIN] | > 150 µM (not active) | 1.57 µM (active) | 0.991 µM (active) | 1.78 µM (active) | 0.348 µM (active) | 
